In paper PMC9270327 (Communications Biology, 2022):
Where two headings read alike, the source gives them in different places.

Assays:
[1] = biological target: T1, recombinant human thrombin (Homo sapiens, UniProt P00734); assay: Enzyme inhibition assay with purified thrombin (Ki, dose-response); assay type: biochemical; settings: for thrombin activity, Mean (Fig. 2c): normalized, 0 nM = 100
T1 construct: purchased R&D Systems (Minneapolis, MN, USA)
Text: (§1) Recombinant human TMPRSS2 was purchased from Creative BioMart (New York, USA) or LSBio (Seattle, USA), factor Xa was obtained from Bio-Techne GmbH (Wiesbaden, Germany). Recombinant human thrombin and matriptase protein were purchased from R&D Systems (Minneapolis, MN, USA).

factor Xa = biological target: T2, factor Xa (Homo sapiens, UniProt P00742); assay: Enzyme inhibition assay with purified factor Xa (Ki, dose-response); assay type: biochemical; settings: for factor Xa activity, Mean (Fig. 2d): normalized, 0 nM = 100
T2 construct: purchased Bio-Techne GmbH (Wiesbaden, Germany)
T2 sequence (P00742 235-488 limits assumed): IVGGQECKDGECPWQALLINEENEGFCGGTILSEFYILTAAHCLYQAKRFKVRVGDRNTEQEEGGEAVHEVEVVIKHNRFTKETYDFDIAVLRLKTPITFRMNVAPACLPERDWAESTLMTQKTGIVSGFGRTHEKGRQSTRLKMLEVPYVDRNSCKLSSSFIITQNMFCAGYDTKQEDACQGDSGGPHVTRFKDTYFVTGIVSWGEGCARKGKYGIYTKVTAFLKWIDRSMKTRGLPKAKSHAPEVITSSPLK
T2 sequence (P00742 41-179 partner limits assumed): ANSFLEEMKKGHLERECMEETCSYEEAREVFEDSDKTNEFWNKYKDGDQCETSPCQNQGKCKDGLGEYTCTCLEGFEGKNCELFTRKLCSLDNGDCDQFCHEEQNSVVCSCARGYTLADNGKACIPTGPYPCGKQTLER
Text: as §1

[2] = biological target: T3, TMPRSS2 expressed in HEK293T cells (Homo sapiens, UniProt O15393); assay: Inhibition of cellular TMPRSS2 activity on HEK293T cells transiently expressing TMPRSS2; assay type: cell-based; settings: 2 h; for normalized fluorescence intensity, HEK293T TMPRSS2, Mean (Fig. 4b): corrected for mock-transfected cells
T3 construct: host or cells: HEK293T (ATCC)
T3 sequence (O15393 whole entry): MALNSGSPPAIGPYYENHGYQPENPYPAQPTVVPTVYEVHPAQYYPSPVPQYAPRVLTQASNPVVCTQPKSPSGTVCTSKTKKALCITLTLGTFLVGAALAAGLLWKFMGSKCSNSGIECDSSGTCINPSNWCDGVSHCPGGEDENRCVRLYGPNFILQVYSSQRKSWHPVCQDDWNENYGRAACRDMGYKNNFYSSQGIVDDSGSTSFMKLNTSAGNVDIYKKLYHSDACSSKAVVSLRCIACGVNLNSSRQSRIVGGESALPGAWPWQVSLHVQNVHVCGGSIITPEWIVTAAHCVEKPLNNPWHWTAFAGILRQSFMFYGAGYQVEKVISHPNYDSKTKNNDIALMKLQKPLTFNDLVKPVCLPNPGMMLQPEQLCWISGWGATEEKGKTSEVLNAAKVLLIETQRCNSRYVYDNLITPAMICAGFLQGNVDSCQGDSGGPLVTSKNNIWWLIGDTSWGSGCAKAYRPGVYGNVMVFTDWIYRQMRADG
Protocol: In total, 10,000 Caco-2 cells (ATCC) in 100 µL EMEM medium supplemented with 10% FBS, 100 U/mL penicillin, […] streptomycin, and 2 mM glutamine (all Invitrogen, Germany) were seeded per well in a 96-well plate and incubated at 37 °C for 4 days until full confluency of the cells. The cells were washed two times with PBS and EMEM medium without FBS was added. […] The fluorescence intensity was measured as described above. In all, 20,000 HEK293T cells (ATCC) were seeded in 100 µL DMEM supplemented with 10% FBS, 100 U/mL penicillin, […] streptomycin, and 2 mM glutamine. […] […] […] Fluorescence intensity was measured after 2 h at 37 °C as described above.

TMPRSS2 = TMPRSS2 (Homo sapiens, UniProt O15393)
Chain of TMPRSS2 (O15393 whole entry): as above
Protocol: Negative ctrl: no inhibitor, positive ctrl: inhibitor in assay buffer. d Inhibitory constants Ki as determined from (a–c). Shown are the means ± SD of n = 1 experiment performed in triplicates. No inh. no inhibition.
The activity of the compounds against the recombinant human enzymes was determined in enzyme inhibition assays. […] The measurements were performed on a Tecan infinite® M1000 and the fluorescence intensity was measured by exciting the AMC fluorophore at 380 nm wavelength and recording emission at 460 nm wavelength. […] Fluorescence intensities and absorption were measured every 2 min for 2 h or as endpoint after 2 h. […] To determine the IC50 values, the concentration-response data were plotted with the program GraphPad prism version 8.4.2 (San Diego, California) and a nonlinear regression fit with the equation [Inhibitor] vs. normalized response was applied. The inhibitory constant Ki was calculated from the IC50 values using the Cheng–Prusoff equation (Ki = IC50/[S]/KM) for competitive reversible inhibitors[66].
The stability of the inhibitors was measured according to a modified procedure from ref. [67]. […] At indicated timepoints, 100 µL samples were taken and mixed with 200 µL of ethanol to precipitate proteins. […] The supernatant was aspirated and analyzed using analytical HPLC. The residual inhibitory constants Ki after incubation was assessed by mixing serial dilutions of the inhibitor with recombinant TMPRSS2 as described above.

For ace-Arg-Pro-Arg-kbt [Compound 2], the “thrombin activity, Mean (Fig. 2c)” value ([1]; 0.02 nM) was 98.5684, the “thrombin activity, Mean (Fig. 2c)” value ([1]; 0.04 nM) was 95.6033 and the “thrombin activity, Mean (Fig. 2c)” value ([1]; 0.2 nM) was 102.761. The “thrombin activity, Mean (Fig. 2c)” value ([1]; 2 nM) was 99.4379, the “thrombin activity, Mean (Fig. 2c)” value ([1]; 20 nM) was 100.358 and the “thrombin activity, Mean (Fig. 2c)” value ([1]; 200 nM) was 86.605. The “thrombin activity, Mean (Fig. 2c)” value ([1]; 10000 nM) was 11.4518, the “thrombin activity, Mean (Fig. 2c)” value ([1]; 100000 nM) was -13.8043 and the Ki ([1]; 30 min preincubation, substrate D-Phe-Homopro-Arg-pNA) was 0.599 µM. The “Selectivity index Thrombin” value ([1]; quotient Ki thrombin / Ki TMPRSS2) was 158, the “factor Xa activity, Mean (Fig. 2d)” value (factor Xa; 0.02 nM) was 109.27 and the “factor Xa activity, Mean (Fig. 2d)” value (factor Xa; 0.04 nM) was 100.653. The “factor Xa activity, Mean (Fig. 2d)” value (factor Xa; 0.2 nM) was 101.827, the “factor Xa activity, Mean (Fig. 2d)” value (factor Xa; 2 nM) was 97.7797 and the “factor Xa activity, Mean (Fig. 2d)” value (factor Xa; 20 nM) was 88.6416. The “factor Xa activity, Mean (Fig. 2d)” value (factor Xa; 200 nM) was 49.7393, the “factor Xa activity, Mean (Fig. 2d)” value (factor Xa; 10000 nM) was 7.702 and the “factor Xa activity, Mean (Fig. 2d)” value (factor Xa; 100000 nM) was 2.742. The Ki (factor Xa; 30 min preincubation, substrate Bz-Ile-Glu-Gly-Arg-pNA) was 0.107 µM, the “Selectivity index Factor Xa” value (factor Xa; quotient Ki factor Xa / Ki TMPRSS2) was 28.1 and the “normalized fluorescence intensity, HEK293T TMPRSS2, Mean (Fig. 4b)” value (from here on “normalized fluorescence intensity”) ([2]; 0.5 nM) was 60.175. The “normalized fluorescence intensity” value ([2]; 5 nM) was 47.265, the “normalized fluorescence intensity” value ([2]; 50 nM) was 34.28 and the “normalized fluorescence intensity” value ([2]; 500 nM) was 7.97. The “normalized fluorescence intensity” value ([2]; 5000 nM) was 0.76, the “normalized fluorescence intensity” value ([2]; 50000 nM) was -5.7 and the IC50 ([2]; corrected for mock-transfected HEK293T cells) was 0.0035 µM. For the same substance, the “increase in Ki values against TMPRSS2” value (TMPRSS2; incubation in human serum during the course of 10 days) was 1.4–1.8 fold, the “TMPRSS2 activity, Mean (0 nM = 100)” value (TMPRSS2; inhibitor 0.0167 nM, 0 min in serum) was 106.1220 and the “TMPRSS2 activity, Mean (0 nM = 100)” value (TMPRSS2; inhibitor 0.0167 nM, 30 min in serum) was 99.5878. The “TMPRSS2 activity, Mean (0 nM = 100)” value (TMPRSS2; inhibitor 0.0167 nM, 60 min in serum) was 97.9753, the “TMPRSS2 activity, Mean (0 nM = 100)” value (TMPRSS2; inhibitor 0.0167 nM, 120 min in serum) was 103.1067 and the “TMPRSS2 activity, Mean (0 nM = 100)” value (TMPRSS2; inhibitor 0.0167 nM, 24 h in serum) was 102.6336. For the same substance, the “TMPRSS2 activity, Mean (0 nM = 100)” value (TMPRSS2; inhibitor 0.0167 nM, 10 d in serum) was 99.7199, the “TMPRSS2 activity, Mean (0 nM = 100)” value (TMPRSS2; inhibitor 0.0167 nM, positive ctrl) was 99.3394 and the “TMPRSS2 activity, Mean (0 nM = 100)” value (TMPRSS2; inhibitor 0.167 nM, 0 min in serum) was 105.3800. The “TMPRSS2 activity, Mean (0 nM = 100)” value (TMPRSS2; inhibitor 0.167 nM, 30 min in serum) was 98.0548, the “TMPRSS2 activity, Mean (0 nM = 100)” value (TMPRSS2; inhibitor 0.167 nM, 60 min in serum) was 98.4409 and the “TMPRSS2 activity, Mean (0 nM = 100)” value (TMPRSS2; inhibitor 0.167 nM, 120 min in serum) was 101.9976. For the same substance, the “TMPRSS2 activity, Mean (0 nM = 100)” value (TMPRSS2; inhibitor 0.167 nM, 24 h in serum) was 99.8791, the “TMPRSS2 activity, Mean (0 nM = 100)” value (TMPRSS2; inhibitor 0.167 nM, 10 d in serum) was 99.7654 and the “TMPRSS2 activity, Mean (0 nM = 100)” value (TMPRSS2; inhibitor 0.167 nM, positive ctrl) was 97.2281. The “TMPRSS2 activity, Mean (0 nM = 100)” value (TMPRSS2; inhibitor 1.665 nM, 0 min in serum) was 108.2341, the “TMPRSS2 activity, Mean (0 nM = 100)” value (TMPRSS2; inhibitor 1.665 nM, 30 min in serum) was 98.1707 and the “TMPRSS2 activity, Mean (0 nM = 100)” value (TMPRSS2; inhibitor 1.665 nM, 60 min in serum) was 94.8463. For the same substance, the “TMPRSS2 activity, Mean (0 nM = 100)” value (TMPRSS2; inhibitor 1.665 nM, 120 min in serum) was 98.7901, the “TMPRSS2 activity, Mean (0 nM = 100)” value (TMPRSS2; inhibitor 1.665 nM, 24 h in serum) was 99.7583 and the “TMPRSS2 activity, Mean (0 nM = 100)” value (TMPRSS2; inhibitor 1.665 nM, 10 d in serum) was 103.5823. The “TMPRSS2 activity, Mean (0 nM = 100)” value (TMPRSS2; inhibitor 1.665 nM, positive ctrl) was 91.5051, the “TMPRSS2 activity, Mean (0 nM = 100)” value (TMPRSS2; inhibitor 16.65 nM, 0 min in serum) was 98.1805 and the “TMPRSS2 activity, Mean (0 nM = 100)” value (TMPRSS2; inhibitor 16.65 nM, 30 min in serum) was 91.6522. The “TMPRSS2 activity, Mean (0 nM = 100)” value (TMPRSS2; inhibitor 16.65 nM, 60 min in serum) was 87.0886, the “TMPRSS2 activity, Mean (0 nM = 100)” value (TMPRSS2; inhibitor 16.65 nM, 120 min in serum) was 89.1234 and the “TMPRSS2 activity, Mean (0 nM = 100)” value (TMPRSS2; inhibitor 16.65 nM, 24 h in serum) was 89.0776. The “TMPRSS2 activity, Mean (0 nM = 100)” value (TMPRSS2; inhibitor 16.65 nM, 10 d in serum) was 93.1155 and the “TMPRSS2 activity, Mean (0 nM = 100)” value (TMPRSS2; inhibitor 16.65 nM, positive ctrl) was 59.7913.
